From patent US20150329498A1, “IRAK INHIBITORS AND USES THEREOF” (Nimbus Iris, Inc., priority 2014, published 2015)

Legend:
[1] = test system: IL8 production in THP-1 cells; assay: LPS induced IL8 production assay in THP-1 cells; type: cell-based; conditions: Homo sapiens, 300 ng/mL LPS, measured at 16 hours
Method: (§1) Provided compounds were also assayed in an LPS (Lipopolysaccharide) or R848 (TLR-7 agonist) induced cytokine (TNFα and IL8) production assay in THP-1 cells, human white blood cells (hWBC), and human whole blood. The exemplary protocol for this assay in THP-1 cells was as follows below.
(§2) THP-1 cells from ATCC (TIB-202) were cultured in RPMI Medium 1640 (Invitrogen, Cat No. A10491-01), 10% fetal bovine serum (Invitrogen, Cat No. 10099141, Lot No. 8172882) containing 100 U/mL Penicillin, 100 μg/mL streptomycin (Invitrogen, Cat No. 15140-122), and 50 uM 2-Mercaptoethanol (Invitrogen, Cat No. 21985023). LPS-EK ultra pure (Invivogen, Cat No. tlrl-peklps) was used to induce IL8 and TNFα production, that was detected in the cell culture supernatant by IL8 HTRF kit (Cisbio, Cat No. 62IL8PEB) and TNFα HTRF kit (Cisbio, Cat No. 62TNFPEB), as per manufacturer instructions. Cells were cultured in 96 well assay plates at 100,000 cells per well, and compounds diluted in final 0.3% DMSO were pre-incubated with cells for 1 hour prior to stimulation with 300 ng/mL LPS. Cytokine production in cell supernatant was measured at 5 hours for TNFα production, and at 16 hours for IL8 production and assessment of cell viability.
(§3) The compound numbers correspond to the compound numbers in Table 1. Compounds having an activity designated as “A” provided an IC50≦0.5 μM; compounds having an activity designated as “B” provided an IC50 of 0.5-5.0 μM; compounds having an activity designated as “C” provided an IC50>5.0 μM. “NA” stands for “not assayed.”

[2] = molecular target: T1, IRAK4 (Homo sapiens, UniProt Q9NWZ3); assay: IRAK-4 activity inhibition assay (Caliper); type: biochemical; conditions: 3.5 nM IRAK4, 1.5 μM Peptide 8, 37 μM ATP
T1 construct: purchased CARNA Bioscience 09-145
T1 sequence (Q9NWZ3 1-460): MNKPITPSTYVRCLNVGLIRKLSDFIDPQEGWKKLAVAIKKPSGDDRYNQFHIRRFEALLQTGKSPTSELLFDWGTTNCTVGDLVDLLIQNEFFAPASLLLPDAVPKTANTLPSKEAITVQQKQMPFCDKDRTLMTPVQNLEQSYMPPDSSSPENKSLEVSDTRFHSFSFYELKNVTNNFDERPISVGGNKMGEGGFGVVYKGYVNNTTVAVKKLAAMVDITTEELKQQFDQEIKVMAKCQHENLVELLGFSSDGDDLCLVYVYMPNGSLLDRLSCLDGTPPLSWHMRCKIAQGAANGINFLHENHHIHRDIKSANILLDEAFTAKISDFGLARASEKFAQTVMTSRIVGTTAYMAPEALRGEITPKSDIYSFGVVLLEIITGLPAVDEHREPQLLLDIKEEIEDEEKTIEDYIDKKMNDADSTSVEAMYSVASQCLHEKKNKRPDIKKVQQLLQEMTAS
Method: A 1x kinase base buffer was prepared from 50 mM HEPES, pH 7.5 and 0.0015% Brij-35. A stop buffer was prepared from 100 mM HEPES, pH 7.5, 0.015% Brij-35, 0.2% Coating Reagent #3, and 50 mM EDTA.
Test compound was diluted to 50× of the final desired highest inhibitor concentration in reaction by 100% DMSO. 100 ul of this compound dilution was transferred to a well in a 96-well plate. For example, if desired highest inhibitor concentration in IC50 determination is 100 uM, then prepare 5000 uM of compound DMSO solution in this step.
Test compound was serially diluted by transferring 30 μl to 60 μl of 100% DMSO in the next well and so forth for a total of 10 concentrations. 100 μl of 100% DMSO was added to two empty wells for no compound control and no enzyme control in the same 96-well plate.
A new 96-well plate was marked as intermediate plate. 5 μl of compound serial dilution was transferred from source plate to the corresponding wells of the intermediate plate. 45 μl of 1x kinase base buffer (KB buffer) was added to each well of the intermediate plate. The intermediate plate was placed for 10 min on a shaker.
5 μl of each well was transferred from the 96-well intermediate plate to a 384-well plate in duplicates. For example, A1 of the 96-well plate is transferred to A1 and A2 of the 384-well plate. A2 of the 96-well plate is transferred to A3 and A4 of the 384-well plate, and so on.
IRAK4 and DTT in 1x kinase base buffer was added. The 2.5x enzyme mix contained 8.8 nM IRAK4 and 5 mM DTT.
Peptide 8, ATP, MgCl2 and MnCl2 were added in the 1x kinase base buffer. The 2.5x peptide mix contained 3.75 μM peptide 8, 92.5 μM ATP, 12.5 mM MgCl2 and 2.5 mM MnCl2.
Assay plate already contained 5 μl of compound in 10% DMSO. Added 10 μl of 2.5x enzyme solution to each well of the 384-well assay plate, except no enzyme control wells. The final concentration of IRAK4 in reaction was 3.5 nM. Added 10 μl of 1x kinase base buffer to no enzyme control wells in the assay plate. Incubated at room temperature for 10 min.
Added 10 μl of 2.5x peptide solution to each well of the 384-well assay plate. The final concentration of Peptide 8 and ATP was 1.5 μM and 37 μM, respectively. Incubated at for 40 minutes. Added 25 μl of stop buffer to stop reaction. Collected data on Caliper.
Copied conversion % data from Caliper program. Converted conversion % values to percent inhibition values. Percent inhibition=(max−conversion %)/(max−min)*100, where “max” means the conversion % of DMSO control and “min” means the conversion % of no enzyme control.
The compound numbers correspond to the compound numbers in Table 1. Compounds having an activity designated as “A” provided an IC50≦5 μM; compounds having an activity designated as “B” provided an IC50 of 5-20 μM; compounds having an activity designated as “C” provided an IC50 of 20-50 μM; and compounds having an activity designated as “D” provided an IC50≧50 μM. “NA” stands for “not assayed.”

[3] = test system: TNFα production in THP-1 cells; assay: LPS induced TNFα production assay in THP-1 cells; type: cell-based; conditions: Homo sapiens, 300 ng/mL LPS, measured at 5 hours
Method: as §1, §2, §3

Structure (SMILES) | IC50 [1] | IC50 [2] | IC50 [3]
CCc1ccc2ncnc(N[C@H]3CC[C@H](N4CCOCC4)CC3)c2c1 [Compound I-15, 6-ethyl-N-((1r,4r)-4-morpholinocyclohexyl)quinazolin-4-amine] | ≤ 500 nM | ≤ 5000 nM | ≤ 500 nM
Cn1cc(Nc2nc(N[C@H]3CC[C@H](N4CCOCC4)CC3)c3cc(Br)ccc3n2)cn1 [Compound I-10, 6-bromo-N2-(1-methyl-1H-pyrazol-4-yl)-N4-((1r,4r)-4-morpholinocyclohexyl)quinazoline-2,4-diamine] | ≤ 500 nM | ≤ 5000 nM | ≤ 500 nM
N#Cc1ccc2ncnc(N[C@H]3CC[C@H](N4CCC5(CC4)COC5)CC3)c2c1 [Compound I-14, 4-(((1r,4r)-4-(2-oxa-7-azaspiro[3.5]nonan-7-yl)cyclohexyl)amino)-quinazoline-6-carbonitrile] | ≤ 500 nM | ≤ 5000 nM | ≤ 500 nM
N#Cc1ccc2nc(Nc3cnn(C4CCC(O)CC4)c3)nc(N[C@H]3CC[C@H](N4CCOCC4)CC3)c2c1 (stereo partly drawn) [Compound I-28, 2-((1-(4-hydroxycyclohexyl)-1H-pyrazol-4-yl)amino)-4-(((1r,4r)-4-morpholinocyclohexyl)amino)quinazoline-6-carbonitrile] | ≤ 500 nM | ≤ 5000 nM | ≤ 500 nM
c1nc(N[C@H]2CC[C@H](N3CCOCC3)CC2)c2c3c(ccc2n1)CCC3 [Compound I-29, N-((1r,4r)-4-morpholinocyclohexyl)-8,9-dihydro-7H-cyclo-penta[f]quinazolin-1-amine] | ≤ 500 nM | ≤ 5000 nM | 500 to 5000 nM
N#Cc1ccc2nc(Nc3cnn(CCO)c3)nc(N[C@H]3CC[C@H](N4CCOCC4)CC3)c2c1 [Compound I-22, 2-((1-(2-hydroxyethyl)-1H-pyrazol-4-yl)amino)-4-(((1r,4r)-4-morpholinocyclohexyl)amino)quinazoline-6-carbonitrile] | ≤ 500 nM | ≤ 5000 nM | 500 to 5000 nM
c1nc(O[C@H]2CC[C@H](N3CCOCC3)CC2)c2c3c(ccc2n1)CCC3 [Compound I-31, 4-((1r,4r)-4-((8,9-dihydro-7H-cyclopenta[f]quinazolin-1-yl)oxy)cyclohexyl)morpholine] | ≤ 500 nM | ≤ 5000 nM | 500 to 5000 nM

Next, values leading:

IC50 [1] | IC50 [2] | IC50 [3] | Structure (SMILES)
≤ 500 nM | ≤ 5000 nM | 500 to 5000 nM | C#Cc1ccc2ncnc(N[C@H]3CC[C@H](N4CCOCC4)CC3)c2c1 [Compound I-35, 6-ethynyl-N-((1r,4r)-4-morpholinocyclohexyl)quinazolin-4-amine]
≤ 500 nM | ≤ 5000 nM | ≤ 500 nM | Cc1cc(Nc2nc(N[C@H]3CC[C@H](N4CCOCC4)CC3)c3cc(Br)ccc3n2)sn1 [Compound I-56, 6-bromo-N2-(3-methylisothiazol-5-yl)-N4-((1r,4r)-4-morpholin-ocyclohexyl)quinazoline-2,4-diamine]
≤ 500 nM | ≤ 5000 nM | 500 to 5000 nM | N#CCc1ccc2ncnc(N[C@H]3CC[C@H](N4CCOCC4)CC3)c2c1 [Compound I-34, 2-(4-(((1r,4r)-4-morpholinocyclohexyl)amino)-quinazolin-6-yl)acetonitrile]
≤ 500 nM | ≤ 5000 nM | ≤ 500 nM | N#CCc1ccc2ncnc(N[C@H]3CC[C@H](N4CCC5(CC4)CC5)CC3)c2c1 [Compound I-52, 2-(4-(((1r,4r)-4-(6-azaspiro[2.5]octan-6-yl)cyclohexyl)amino)quin-azolin-6-yl)acetonitrile]
≤ 500 nM | ≤ 5000 nM | 500 to 5000 nM | OCCc1ccc2ncnc(N[C@H]3CC[C@H](N4CCOCC4)CC3)c2c1 [Compound I-40, 2-(4-(((1r,4r)-4-morpholinocyclohexyl)amino)quinazolin-6-yl)ethanol]
≤ 500 nM | ≤ 5000 nM | ≤ 500 nM | c1nc(N[C@H]2CC[C@H](N3CCOCC3)CC2)c2cc(-c3cn[nH]c3)ccc2n1 [Compound I-59, N-((1r,4r)-4-morpholinocyclohexyl)-6-(1H-pyrazol-4-yl)quinazolin-4-amine]
≤ 500 nM | ≤ 5000 nM | ≤ 500 nM | OCCCc1ccc2ncnc(N[C@H]3CC[C@H](N4CCOCC4)CC3)c2c1 [Compound I-46, 3-(4-(((1r,4r)-4-morpholinocyclohexyl)amino)quinazolin-6-yl)propan-1-ol]
